Results published in patent US20250155433A1, “FLUORESCENT SENSORS FOR DETECTION OF SIDEROPHORES AND OTHER MOLECULES PRODUCED BY BACTERIAL PATHOGENS” (Kansas State University Research Foundation, priority 2021, published 2025).
Read-outs that look alike come from different tables or passages of the source. *1 amine or outer side, *2 acyl side, *3 side chain or, on linkers, in order; H or OH if unused. Where a SMILES comes first, the peptide text is derived from it. Bridges are numbered along the chain shown (N, C = ends). [ ]: non-standard residue; d: D form. X1 = O=C([C@@H]1CCN=C2C(N[*:1])=Cc3cc(O)c(O)cc3N21)[*:2]; Orn(N5-OH,N5-Ac) = CC(=O)N(O)CCC[C@H](N)C(=O)O; X2 = O=CN(O)CCC[C@H](N[*:1])C(=O)[*:2]; Suc = O=C(CCC(=O)[*:2])[*:1]

Tests used:
CRE/ESKAPE pathogens = assay: Decoy sensor measurements of metal complex uptake by bacteria; assay type: cell-based; details: decoy sensors in TonB-deficient E. coli, 37° C., strains grown in iron-deficient MOPS
From the text: Fluorescence spectroscopic uptake measurements. We employed FD sensors to monitor TonB-dependent uptake of various siderophores by bacterial pathogens. In the fluorescence spectroscopic uptake studies E. coli OKN13 (ΔtonB, ΔfepA) or OKN1359 (ΔtonB, Δfiu, ΔfepA, Δcir) were host strains for pITS23 derivatives carrying single Cys mutants of an LGP of interest. The FLGP were decoy sensors that monitored ferric siderophore uptake by test strains. For each assay we used 10^7 sensor cells (e.g., OKN13/pFepA-FM (53)) in a 2 mL quartz cuvette containing PBS+0.2% glucose at 37° C. After recording fluorescence intensity for 100 seconds, we added an iron complex (e.g., FeEnt) at a final concentration of ˜10 nM. After incubating the sample for 100 seconds, during which time fluorescence was quenched (e.g., ˜60% quenching for EcoFepA_A698C-FM), we added 0.5-2×10^7 cells of the test strain (E. coli MG1655, K. pneumoniae Kp52.145, A. baumannii 17978, P. aeruginosa PA01, E. cloacae) and monitored the time-course of fluorescence emissions at 520 nm for 15-40 minutes, with stirring.

[1] = target: T1, HsaSCN (human siderocalin) (Homo sapiens, UniProt P80188, Q148C); assay: Fluorescence quenching binding to purified HsaSCN-FM sensor
T1 construct: adds a 6H-tag at either the N- or C-termini of the mature proteins; 6-His (N); made in house; host or cells: E. coli BL21 (pET28), IPTG-induced; purified on Talon Superflow

EcoFhuA = EcoFhuA (Escherichia coli, UniProt P06971); assay: Fluorescence quenching binding to EcoFhuA-FM sensor
Protocol: (§1) Fluorescence modifications. For modifications with maleimide fluorophores, we inoculated E. coli strains OKN3, OKN13, OKN359 or OKN1359, harboring plasmids that encoded a Cys mutant LGP, from frozen stocks into LB, grew them overnight and sub-cultured at 1% into iron-deficient MOPS minimal media, with shaking (200 rpm) at 37° C. for 10-12 h, until late exponential phase. After collecting the cells by centrifugation at 7500×g for 15 min, and washing with 50 mM NaHPO4, pH 6.7, we labeled the Cys-mutant LGP with 5 μM FM in 50 mM NaHPO4, pH 6.7 for 15 min at 37° C. FM. We terminated the labeling reactions with 100 μM β-mercaptoethanol. After collecting the fluoresceinated cells by centrifugation at 7500×g for 15 min, and washing with 50 mM NaHPO4, pH 6.7, we re-suspended them in PBS plus 0.2% glucose. We either immediately used the labeled cells in spectroscopic experiments, or rested them on ice (up to 24 h), or added glycerol to 15% and stored them (indefinitely) as 1 mL aliquots at −70° C. In the latter case, after thawing the labeled cells we pelleted them by centrifugation in a microfuge, washed them once with and re-suspended them in PBS containing 0.2% glucose. Lastly, for evaluation of protein expression or the extent of FM-labeling we solubilized aliquots of the cell suspensions with sample buffer, and subjected them to SDS-PAGE. After electrophoresis, we first visualized the fluorescence labeling on a Typhoon 8600 Biomolecular Scanner (GE/Amersham), and then stained the gels with Coomassie blue R (153).
(§2) Fluorescence spectroscopic binding determinations. We observed fluorophore-labeled cells in an SLM AMINCO 8100 fluorescence spectrometer, upgraded with an OLIS operating system and software (OLIS SpectralWorks, OLIS Inc., Bogart, GA), to control its shutters, polarizers and data collection. We also utilized an OLIS Clarity fluorescence spectrometer for fluorescence assays. For binding determinations we deposited 2.5×10^7 labeled cells in a quartz cuvette (final volume, 2 mL) with stirring at 37° C., measured the initial fluorescence (F0), and then added increasing concentrations of an iron complex while monitoring the quenching of fluorescence emissions (F) at 520 nm. We performed each measurement in triplicate and calculated the mean value of F/F0 at each ligand concentration. We plotted 1−F/F0 vs [ligand] and analyzed the data by the 1-site binding model of Grafit 6.0.12 (Erithacus Ltd. West Sussex, UK), that fits data to a single site saturation curve, where the amount of ligand bound is plotted as a function of the amount free: […]
(§3) Table 1 lists KD values from analysis of fluorescence quenching with ferric or apo (parenthetic values) siderophores or porphyrins. […]

EcoIutA = target: T2, EcoIutA (Escherichia coli, UniProt P14542, T573C); assay: Fluorescence quenching binding to EcoIutA-FM sensor; details: other ferric hydroxamates
T2 construct: expressed in transfected cells; host or cells: E. coli OKN3/OKN13/OKN359/OKN1359 carrying a pITS23 derivative
Protocol: as §1, §2, §3

KpnFyuA = assay: Fluorescence quenching binding to KpnFyuA-FM sensor; parameters: species or system Klebsiella pneumoniae
Protocol: as §1, with “In the latter case, after thawing the labeled cells we pelleted them by centrifugation in a microfuge, washed them once with and re-suspended them in PBS containing 0.2% glucose. Lastly, for evaluation of protein expression or the extent of FM-labeling we solubilized aliquots of the cell suspensions with sample buffer, and subjected them to SDS-PAGE.” left out
as §2, with “concentration.” for “concentration. We plotted 1−F/F0 vs [ligand] and analyzed the data by the 1-site binding model of Grafit 6.0.12 (Erithacus Ltd. West Sussex, UK), that fits data to a single site saturation curve, where the amount of ligand bound is plotted as a function of the amount free:”
as §3

## C[C@@H](O)[C@@H]1NC(=O)[C@H](CCCN([O-])C=O)NC(=O)[C@@H](NC(=O)[C@H](CCCN([O-])C=O)NC(=O)[C@@H](CO)NC(=O)[C@H](CCCNC(=N)N)NC(=O)[C@@H](CO)NC(=O)[C@@H]2CCN=C3C(NC(=O)CCC(=O)O)=Cc4cc(O)c([O-])cc4N32)CCCCNC(=O)[C@H]([C@@H](C)O)NC1=O.[Fe+3] [FePvd] (Suc-[X1][dS]R[dS][X2]K[X2]TT; lactam 6-C)
CRE/ESKAPE pathogens
  TonB-dependent uptake by test strains: exclusive transport of FePvd by P. aeruginosa

## CC(=O)N(O)CCCCCNC(=O)CCC(=O)N(O)CCCCCNC(=O)CCC(=O)N(O)CCCCCN.[Fe+3] [FxB]
[1]; read-out: Affinity (KD) of sensor HsaSCN, ferric complexes and porphyrins, Cys residue Q128C, FM-labeled purified protein, NB = no binding
  Kd: 175 nM
[1]; read-out: KD, HsaSCN-FM
  Kd: 180 nM
EcoFhuA; read-out: Affinity (KD) of sensor EcoFhuA, ferric complexes, Cys residue D396C, FM-labeled, NB = no binding
  Kd: 100000 nM
EcoIutA
  Binding by IutA: did not measurably bind
KpnFyuA; ferric complexes, Cys residue S631C, FM-labeled, NB = no binding, read-out: Affinity (KD) of sensor KpnFyuA
  Kd: 277000 nM
KpnFyuA; secondary ligands
  Binding by KpnFyuA: weakly bound

## CC(C)(C1=N[C@@](C)(C(=O)O)CS1)[C@H](O)[C@@H]1CSC([C@H]2CSC(c3ccccc3O)=N2)N1 (stereo partly drawn) [Ybt, yersiniabactin]
KpnFyuA; apo (parenthetic value), S631C, read-out: Affinity (KD) of sensor KpnFyuA, apo siderophore
  Kd: 120 nM

## CC(=O)N(O)CCC[C@@H]1NC(=O)CNC(=O)CNC(=O)CNC(=O)[C@H](CCCN(O)C(C)=O)NC(=O)[C@H](CCCN(O)C(C)=O)NC1=O [apoFc] (cyclo(GGG[Orn(N5-OH,N5-Ac)][Orn(N5-OH,N5-Ac)][Orn(N5-OH,N5-Ac)]))
EcoFhuA; read-out: Affinity (KD) of sensor EcoFhuA, apo siderophore, apo (parenthetic value), D396C
  Kd: 200 nM
